We go through 25 compounds from US8859546B2, “Picolinamide inhibitors of kinases” (AbbVie Inc., priority 2011, dated 2014).

A value given as a limit tells only on which side of the number the result lay.

T1 sequence (Q9UM73 19-1620): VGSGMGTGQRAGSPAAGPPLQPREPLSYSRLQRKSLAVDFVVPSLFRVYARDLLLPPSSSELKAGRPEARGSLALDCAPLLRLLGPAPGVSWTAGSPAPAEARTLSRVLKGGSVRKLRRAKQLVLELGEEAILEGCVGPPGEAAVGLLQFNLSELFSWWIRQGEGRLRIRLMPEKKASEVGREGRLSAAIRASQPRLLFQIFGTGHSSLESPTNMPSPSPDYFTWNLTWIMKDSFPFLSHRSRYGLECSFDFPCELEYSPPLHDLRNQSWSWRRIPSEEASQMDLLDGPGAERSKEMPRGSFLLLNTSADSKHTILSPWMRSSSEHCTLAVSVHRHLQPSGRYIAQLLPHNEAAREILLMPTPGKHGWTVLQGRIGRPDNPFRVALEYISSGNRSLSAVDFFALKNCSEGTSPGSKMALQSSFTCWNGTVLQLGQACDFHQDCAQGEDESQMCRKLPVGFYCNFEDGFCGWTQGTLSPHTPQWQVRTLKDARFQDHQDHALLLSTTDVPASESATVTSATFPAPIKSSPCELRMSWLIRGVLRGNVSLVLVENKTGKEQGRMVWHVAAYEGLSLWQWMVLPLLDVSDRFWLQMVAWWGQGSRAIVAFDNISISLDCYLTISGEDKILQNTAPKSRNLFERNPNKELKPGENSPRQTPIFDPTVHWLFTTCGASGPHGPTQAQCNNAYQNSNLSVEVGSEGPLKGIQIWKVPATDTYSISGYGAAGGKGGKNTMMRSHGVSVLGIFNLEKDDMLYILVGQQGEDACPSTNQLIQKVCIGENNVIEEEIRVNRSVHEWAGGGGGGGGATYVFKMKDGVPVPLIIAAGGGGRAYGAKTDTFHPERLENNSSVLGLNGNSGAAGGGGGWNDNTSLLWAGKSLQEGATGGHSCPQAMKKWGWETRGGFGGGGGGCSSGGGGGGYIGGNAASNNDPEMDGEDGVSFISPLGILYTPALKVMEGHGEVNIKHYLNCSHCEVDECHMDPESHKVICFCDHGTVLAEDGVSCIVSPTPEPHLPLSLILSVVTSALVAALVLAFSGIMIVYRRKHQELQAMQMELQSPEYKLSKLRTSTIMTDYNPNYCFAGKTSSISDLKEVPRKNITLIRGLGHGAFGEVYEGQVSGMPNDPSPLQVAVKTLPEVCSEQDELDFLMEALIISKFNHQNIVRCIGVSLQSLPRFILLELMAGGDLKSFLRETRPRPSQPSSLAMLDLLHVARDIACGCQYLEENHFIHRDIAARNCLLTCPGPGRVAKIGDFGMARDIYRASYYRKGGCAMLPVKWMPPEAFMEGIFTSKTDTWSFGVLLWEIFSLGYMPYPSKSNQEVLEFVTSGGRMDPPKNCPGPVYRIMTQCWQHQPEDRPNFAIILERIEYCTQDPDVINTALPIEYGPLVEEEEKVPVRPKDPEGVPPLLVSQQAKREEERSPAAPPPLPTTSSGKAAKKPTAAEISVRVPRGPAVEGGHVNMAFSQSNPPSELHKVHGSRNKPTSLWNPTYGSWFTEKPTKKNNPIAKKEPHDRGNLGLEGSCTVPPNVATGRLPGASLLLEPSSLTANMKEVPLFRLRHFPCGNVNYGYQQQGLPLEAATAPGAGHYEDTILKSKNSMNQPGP

This assay addresses T1, ALK (Homo sapiens, UniProt Q9UM73).
T1 construct: purchased Millipore
Put plainly: ALK kinase assay (HTRF), apparent Ki. The class given is biochemical. The conditions noted are these: apparent Ki from IC50 by Cheng-Prusoff; ALK (Millipore), 50 μM ATP; read-out: HTRF_ALK Human-Ki. How it is done: The following procedure is used to determine ALK Activity.
ALK kinase assays were conducted with the indicated final concentrations unless otherwise specified. In 384 well black plates (Axygen), 8 μl of compound (2% DMSO) was incubated with 8 μl Lck-peptide substrate (0.5 μM, biotin-Ahx-GAEEEIYAAFFA-COOH) and 8 μl of a mixture of ALK (3 nM, Millipore) and ATP (50 μM) in reaction buffer (50 mM Hepes, pH 7.4; 10 mM MgCl2; 2 mM MnCl2; 0.1 mM sodium orthovanadate; 0.01% BSA and 1 mM DTT (added fresh before assay) for 1 h at room temperature. Reactions were then quenched by the addition of 30 μl quench solution (streptavidin-allophycocyanin and Europium-cryptate PT66 monoclonal antibody in 40 mM Hepes, pH 7.4; 480 mM KF; 66 mM EDTA; 0.01% Tween-20; and 0.1% BSA) at room temperature. Plates were read 1 h after quenching on an Envision Multilaber Reader and IC50 values were calculated using a sigmoidal fit of the concentration/inhibition response curves. These values were converted to apparent Ki values using the Cheng-Prusoff relationship.
Alternatively, 4 nM ALK (Millipore) and 50 μM ATP were pre-incubated for 30 min at room temperate in 384 well plates (Corning 3676) in 2.5× reaction buffer (125 nM SEB from Cisbio Bioassays, 12.5 mM MgCl2, 5 mM MnCl2, and 2.5 mM DTT). Reactions were initiated by the addition of 4 μl ALK-ATP mixture to 2 μl compounds (2% DMSO) and 4 μl TK-substrate biotin (Cisbio Bioassays). After incubation for 1 h at room temperature, reactions were quenched in 10 μl stop buffer (Cisbio detection buffer containing Streptavididn-XL665 and Eu-Cryptate PT66 monoclonal antibody). Plates were read 1 h after quenching on an Envision Multilaber Reader and IC50 values were calculated using a sigmoidal fit of the concentration/inhibition response curves. These values were converted to apparent Ki values using the Cheng-Prusoff relationship. Results are shown in Table 1 A correlates to an Ki=<100 nM, B correlates to an Ki between 100 nM and 1 μM, C correlates to an Ki=>1 μM.
For orientation: TR-FRET usually uses a lanthanide donor and a delayed reading to cut background.
As for `CCN1CCN(c2ccc(Nc3cc(Cc4c(F)cccc4Cl)cnc3C(N)=O)c(OC)c2)CC1` [Example 47, 5-(2-chloro-6-fluorobenzyl)-3-{[4-(4-ethylpiperazin-1-yl)-2-methoxyphenyl]amino}pyridine-2-carboxamide], the Ki is under 100 nM. The figure for `COc1cc(N2CCNCC2)ccc1Nc1cc(Cc2c(F)ccc(F)c2Cl)cnc1C(N)=O` [Example 48, 5-(2-chloro-3,6-difluorobenzyl)-3-{[2-methoxy-4-(piperazin-1-yl)phenyl]amino}pyridine-2-carboxamide] is 100 to 1000 nM; for `Cc1ccccc1-c1cnc(C(N)=O)c(Nc2ccc(N3CCN(C)CC3)cc2)c1` [Example 49, 5-(2-methylphenyl)-3-{[4-(4-methylpiperazin-1-yl)phenyl]amino}pyridine-2-carboxamide] it is 100 to 1000 nM; for `CN1CCN(c2ccc(Nc3cc(-c4ccccc4F)cnc3C(N)=O)cc2)CC1` [Example 50, 5-(2-fluorophenyl)-3-{[4-(4-methylpiperazin-1-yl)phenyl]amino}pyridine-2-carboxamide] it is 100 to 1000 nM. Take `CN1CCN(c2ccc(Nc3cc(-c4cccc(F)c4)cnc3C(N)=O)cc2)CC1` [Example 51, 5-(3-fluorophenyl)-3-{[4-(4-methylpiperazin-1-yl)phenyl]amino}pyridine-2-carboxamide]: the Ki was over 1000 nM. For `CN1CCN(c2ccc(Nc3cc(-c4cccc(Cl)c4)cnc3C(N)=O)cc2)CC1` [Example 52, 5-(3-chlorophenyl)-3-{[4-(4-methylpiperazin-1-yl)phenyl]amino}pyridine-2-carboxamide], the Ki is over 1000 nM.

`CN1CCN(c2ccc(Nc3cc(-c4cccc(C(N)=O)c4)cnc3C(N)=O)cc2)CC1` [Example 53, 5-(3-carbamoylphenyl)-3-{[4-(4-methylpiperazin-1-yl)phenyl]amino}pyridine-2-carboxamide]: the Ki is 100 to 1000 nM. In the case of `CN1CCN(c2ccc(Nc3cc(-c4cccc(NS(C)(=O)=O)c4)cnc3C(N)=O)cc2)CC1` [Example 54, 3-{[4-(4-methylpiperazin-1-yl)phenyl]amino}-5-{3-[(methylsulfonyl)amino]phenyl}pyridine-2-carboxamide], the Ki is under 100 nM. For the compound `CN1CCN(c2ccc(Nc3cc(-c4ccccc4NS(C)(=O)=O)cnc3C(N)=O)cc2)CC1` [Example 55, 3-{[4-(4-methylpiperazin-1-yl)phenyl]amino}-5-{2-[(methylsulfonyl)amino]phenyl}pyridine-2-carboxamide], the Ki lay in the range of 100 to 1000 nM. As for `CN1CCN(c2ccc(Nc3cc(/C=C/c4ccccc4)cnc3C(N)=O)cc2)CC1` [Example 56, 3-{[4-(4-methylpiperazin-1-yl)phenyl]amino}-5-[(E)-2-phenylvinyl]pyridine-2-carboxamide], the Ki is over 1000 nM. For the compound `COc1cc(N2CCN(C)CC2)ccc1Nc1cc(-c2cccc(NS(C)(=O)=O)c2)cnc1C(N)=O` [Example 57, 3-{[2-methoxy-4-(4-methylpiperazin-1-yl)phenyl]amino}-5-{3-[(methylsulfonyl)amino]phenyl}pyridine-2-carboxamide], the Ki fell in the range of 100 to 1000 nM. For the compound `CN1CCN(c2ccc(Nc3cc(-c4ccccc4Cl)cnc3C(N)=O)cc2)CC1` [Example 58, 5-(2-chlorophenyl)-3-{[4-(4-methylpiperazin-1-yl)phenyl]amino}pyridine-2-carboxamide], the Ki is 100 to 1000 nM.

In the case of `CN1CCN(c2ccc(Nc3cc(-c4cccc(C#N)c4)cnc3C(N)=O)cc2)CC1` [Example 59, 5-(3-cyanophenyl)-3-{[4-(4-methylpiperazin-1-yl)phenyl]amino}pyridine-2-carboxamide], the Ki was over 1000 nM.

On to `CN1CCN(c2ccc(Nc3cc(-c4cccnc4)cnc3C(N)=O)cc2)CC1` [Example 60, 5-{[4-(4-methylpiperazin-1-yl)phenyl]amino}-3,3′-bipyridine-6-carboxamide], for which the Ki is over 1000 nM. As for `CN1CCN(c2ccc(Nc3cc(-c4ccccc4C#N)cnc3C(N)=O)cc2)CC1` [Example 61, 5-(2-cyanophenyl)-3-{[4-(4-methylpiperazin-1-yl)phenyl]amino}pyridine-2-carboxamide], the Ki is over 1000 nM. As to `CN1CCN(c2ccc(Nc3cc(-c4cccc(C(=O)N(C)C)c4)cnc3C(N)=O)cc2)CC1` [Example 62, 5-[3-(dimethylcarbamoyl)phenyl]-3-{[4-(4-methylpiperazin-1-yl)phenyl]amino}pyridine-2-carboxamide], the Ki lay in the range of 100 to 1000 nM.

For the compound `CN1CCN(c2ccc(Nc3cc(-c4cn[nH]c4)cnc3C(N)=O)cc2)CC1` [Example 63, 3-{[4-(4-methylpiperazin-1-yl)phenyl]amino}-5-(1H-pyrazol-4-yl)pyridine-2-carboxamide], the Ki is over 1000 nM. The figure for `CN1CCN(c2ccc(Nc3cc(-c4cnn(C)c4)cnc3C(N)=O)cc2)CC1` [Example 64, 3-{[4-(4-methylpiperazin-1-yl)phenyl]amino}-5-(1-methyl-1H-pyrazol-4-yl)pyridine-2-carboxamide] is over 1000 nM; for `CN1CCN(c2ccc(Nc3cc(-c4cccc(NS(=O)(=O)CC(F)(F)F)c4)cnc3C(N)=O)cc2)CC1` [Example 65, 3-{[4-(4-methylpiperazin-1-yl)phenyl]amino}-5-(3-{[(2,2,2-trifluoroethyl)sulfonyl]amino}phenyl)pyridine-2-carboxamide] it is 100 to 1000 nM; for `CN1CCN(c2ccc(Nc3cc(-c4cccc(NS(=O)(=O)C5CC5)c4)cnc3C(N)=O)cc2)CC1` [Example 66, 5-{3-[(cyclopropylsulfonyl)amino]phenyl}-3-{[4-(4-methylpiperazin-1-yl)phenyl]amino}pyridine-2-carboxamide] it is 100 to 1000 nM. As to `Cc1oncc1S(=O)(=O)Nc1cccc(-c2cnc(C(N)=O)c(Nc3ccc(N4CCN(C)CC4)cc3)c2)c1` [Example 67, 5-(3-{[(5-methyl-1,2-oxazol-4-yl)sulfonyl]amino}phenyl)-3-{[4-(4-methylpiperazin-1-yl)phenyl]amino}pyridine-2-carboxamide], the Ki is 100 to 1000 nM.

In the case of `CN1CCN(c2ccc(Nc3cc(-c4cccc(NS(=O)(=O)c5cccs5)c4)cnc3C(N)=O)cc2)CC1` [Example 68, 3-{[4-(4-methylpiperazin-1-yl)phenyl]amino}-5-{3-[(2-thienylsulfonyl)amino]phenyl}pyridine-2-carboxamide], the Ki was under 100 nM. The value for `CN1CCN(c2ccc(Nc3cc(-c4cccc(NS(=O)(=O)c5ccn(C)n5)c4)cnc3C(N)=O)cc2)CC1` [Example 69, 3-{[4-(4-methylpiperazin-1-yl)phenyl]amino}-5-(3-{[(1-methyl-1H-pyrazol-3-yl)sulfonyl]amino}phenyl)pyridine-2-carboxamide] was 100 to 1000 nM; that for `CN1CCN(c2ccc(Nc3cc(Nc4ccccc4)cnc3C(N)=O)cc2)CC1` [Example 70, 5-anilino-3-{[4-(4-methylpiperazin-1-yl)phenyl]amino}pyridine-2-carboxamide] was 100 to 1000 nM; that for `CN1CCN(c2ccc(Nc3cc(Nc4ccccc4S(=O)(=O)N(C)C)cnc3C(N)=O)cc2)CC1` [Example 71, 5-{[2-(dimethylsulfamoyl)phenyl]amino}-3-{[4-(4-methylpiperazin-1-yl)phenyl]amino}pyridine-2-carboxamide] was 100 to 1000 nM.
